Values after ≈ are worked out from the molar mass of the structure shown. Values joined by “and” are separate entries in the source; they are usually repeats but may differ in a detail not shown here. Equal values may be shown once. Read-outs that look alike come from different tables or passages of the source.
What was measured:
HSV-1 [1] = assay: Plaque assay, plaquing efficiency of HSV-1 in serum-starved Vero cells; type: cell-based, Herpes Simplex Type I (HSV-1)
Method: Plaque assays were performed on confluent, serum-starved monolayers of Vero cells in 100 mm dishes (Corning). Growth medium was removed by aspiration and 10 ml of low serum media was added. Monolayers were grown in this medium for 5 days. […] After incubation, the inoculum was removed by aspiration and replaced with 2 ml of agarose-medium maintained at 42° C. The agarose-medium overlay contained a fresh 1:1 mixture of: […] A plaque assay was used to confirm the antiviral activity of cyclocreatine detected in the cytopathogenicity studies described above. Vero cells were grown in 100 mm dishes and were serum-starved. Each dish, with the exception of uninfected controls, was inoculated with HSV-1 virus and incubated with various concentrations of cyclocreatine until plaques appeared in the plates exposed to virus alone.

Adenovirus type 5 = assay: CPE assay, adenovirus in DU 145 cells; type: cell-based; details: 0.3125-10 mg/ml, FIG. 15A
Method: Adenovirus type 5 was obtained from the ATCC. DU 145 cells were obtained from the American Type Culture Collection. Cells were infected with virus and cyclocreatine was assayed for antiviral activity using the cytopathic effect (CPE) assay essentially as described in Example 1.

[2] = tested on: Vesicular stomatitis virus (VSV), Indiana strain; type: cell-based; details: 62.5 μg/ml-4 mg/ml; Vero cells and BHK-21 cells; scale 0-4; no drug controls 4.0
[3] = tested on: Parainfluenza Type 3 (PIV-3), strain C243; assay: CPE-reduction assay, parainfluenza type 3 in HEp-2 cells; type: cell-based
[4] = tested on: HCMV, strain C8805-37 (DHPG resistant); assay: microbe, parasite or virus in culture; type: cell-based, Human Cytomegalovirus; parameters: TI50 (CD50 ÷ ED50): unit not given beside the values; details: for # Plaques: virus control 11.5 ± 2.1
[5] = Cytotoxicity in plaque reduction assay, Hs68 cells; type: cell-based; details: human, Table 5, read-out: CD50 (the source's name)
Method: Cytotoxicity was determined by examination of cells (located away from plaques) in infected wells which had been treated with drug.

[6] = tested on: Herpes Simplex Virus, Type 1, strain BW10168 (TK-); assay: microbe, parasite or virus in culture; type: cell-based; parameters: TI50 (CD50 ÷ ED50): unit not given beside the values; details: for Average CPE: virus controls 4.0; for EC50: Human alphaherpesvirus 1, Vero
[7] = Cytotoxicity in plaque reduction assay, CV-1 cells; type: cell-based, African Green Monkey; details: monkey, Table 9B, read-out: CD50 (the source's name)
creatine kinase [8] = target: T1, creatine kinase (Oryctolagus cuniculus, UniProt P00563); assay: Phosphorylation by creatine kinase, coupled assay with pyruvate kinase and LDH; type: biochemical; details: 40 mM
Method: Compound 5/6 (AM 361), where R=CH3, was prepared as described above and assayed for phosphorylation by creatine kinase in a coupled assay with pyruvate kinase and lactate dehydrogenase (LDH) as described (Bergmeyer, H. U., ed. (1974), In: Methods of Enzymatic Analysis, Second English Edition, Volume 4, (Verlag Chemie Weinheim and Academic Press, Inc.: New York, London) pp. 1772-1779). Each compound listed in Table 11 below was tested at a concentration of 40 mM. Compound 5/6 (AM 361) was slowly phosphorylated.

Vero cells = details: monkey
creatine kinase [9] = target: T1, creatine kinase; details: cited from earlier work
in vitro [10] = details: monkey, vero cells
in vitro [11] = details: monkey, vero cells; remark: listed apart in the source
[12] = newly hatched chicks, 1% in diet, with antibiotics; cited from earlier work
HSV-1 [13] = assay: Cytopathic effect (CPE) assay, HSV-1
DU 145 cells = assay: Drug cytotoxicity in CPE assay, DU 145 cells; details: 10 mg/ml, 0 PFUs
[14] = Dietary feeding of cyclocreatine, tolerance and uptake; details: mice, up to 1% of diet for 2 weeks or over 4 weeks

T1 sequence (P00563 whole entry): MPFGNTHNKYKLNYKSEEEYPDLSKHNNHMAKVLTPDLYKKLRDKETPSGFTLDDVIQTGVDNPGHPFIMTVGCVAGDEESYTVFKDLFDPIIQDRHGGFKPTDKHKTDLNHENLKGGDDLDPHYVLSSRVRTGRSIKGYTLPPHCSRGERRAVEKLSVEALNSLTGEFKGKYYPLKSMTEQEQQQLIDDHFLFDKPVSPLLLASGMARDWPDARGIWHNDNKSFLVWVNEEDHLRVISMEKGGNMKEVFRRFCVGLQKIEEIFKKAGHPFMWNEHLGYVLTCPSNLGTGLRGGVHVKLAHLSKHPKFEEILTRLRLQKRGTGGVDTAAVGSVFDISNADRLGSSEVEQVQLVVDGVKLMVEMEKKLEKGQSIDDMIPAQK

Compound: NC1=NCCN1CC(=O)O [cyclocreatine, 1-carboxymethyl-2-iminoimidazolidine]
- effect on plaquing efficiency (HSV-1 [1]; FIG. 9): reduced the plaquing efficiency
- number of plaques (HSV-1 [1]; second experiment, 4 mg/ml (755 at 0 mg/ml)): 120
- effect on cytopathic effect (Adenovirus type 5): inhibited the cytopathic effect
- CPE grade [2]: 4.0
- Average CPE ([3]; 5 mg/ml): 2.8
- Average CPE ([3]; 10 mg/ml): 0.5
- # Plaques ([4]; AM-285 156.25 μg/ml): 9.5
- # Plaques ([4]; AM-285 312.5 μg/ml): 12
- # Plaques ([4]; AM-285 625 μg/ml): 10.5
- # Plaques ([4]; AM-285 1250 μg/ml): 9.5
- # Plaques ([4]; AM-285 2500 μg/ml): 6.5
- # Plaques ([4]; AM-285 5000 μg/ml): 1.5
- # Plaques ([4]; AM-285 10000 μg/ml): 0
- inhibition at 156.25 µg/mL ([4]; Human betaherpesvirus 5, MRC5, AM-285 156.25 μg/ml, read-out: % Reduction): 0%
- inhibition at 312.5 µg/mL ([4]; Human betaherpesvirus 5, MRC5, AM-285 312.5 μg/ml, read-out: % Reduction): 0%
- inhibition at 625 µg/mL ([4]; Human betaherpesvirus 5, MRC5, AM-285 625 μg/ml, read-out: % Reduction): 0%
- inhibition at 1250 µg/mL ([4]; Human betaherpesvirus 5, MRC5, AM-285 1250 μg/ml, read-out: % Reduction): 0%
- inhibition at 2500 µg/mL ([4]; Human betaherpesvirus 5, MRC5, AM-285 2500 μg/ml, read-out: % Reduction): 43%
- inhibition at 5000 µg/mL ([4]; Human betaherpesvirus 5, MRC5, AM-285 5000 μg/ml, read-out: % Reduction): 87%
- inhibition at 10000 µg/mL ([4]; Human betaherpesvirus 5, MRC5, AM-285 10000 μg/ml, read-out: % Reduction): 100%
- EC50 ([4]; Human betaherpesvirus 5, MRC5, MRC-5 cells, Table 7, read-out: ED50 (the source's name)): 2780 µg/mL (≈ 19.4 mM)
- TI50 (CD50 ÷ ED50) ([4]; MRC-5 cells, Table 7): > 3.6
- CC50 [5]: > 4000 µg/mL
- Average CPE ([6]; AM-285 62.5 μg/ml): 3.2
- Average CPE ([6]; AM-285 125 μg/ml): 3.5
- Average CPE ([6]; AM-285 260 μg/ml): 3.2
- Average CPE ([6]; AM-285 500 μg/ml): 1.7
- Average CPE ([6]; AM-285 1000 μg/ml): 1.8
- Average CPE ([6]; AM-285 2000 μg/ml): 2.0
- Average CPE ([6]; AM-285 4000 μg/ml): 0.7
- EC50 ([6]; read-out: ED50, Vero cells, Table 8): 384 µg/mL (≈ 2.69 mM)
- EC50 ([6]; read-out: ED50, as stated in text): ~900 µg/mL and ~6.3 mM
- TI50 (CD50 ÷ ED50) ([6]; Vero cells, Table 8): > 4.5
- CC50 [7]: 5790 µg/mL (≈ 40.4 mM)
- % Rate of Creatine (creatine kinase [8]): 46%
- Δ in Absorbance/min (creatine kinase [8]): 0.54
- CC50 (Vero cells): > 28 mM
- CD50 (Vero cells): greater than 4 mg/ml
- Vmax/Km ratio relative to creatine (creatine kinase [9]; forward reaction in vitro): approximately one-fifth
- initial rate of phosphorylation by creatine kinase, % of that of creatine (creatine kinase [9]; in vitro, forward reaction): 31%
- Vmax, % of that of creatine (creatine kinase [9]; measured at 1° C.): 90%
- Ki (creatine kinase [9]; reverse reaction at 1° C., read-out: Ki, competitive inhibitor of P-creatine): 44 mM
- CC50 (in vitro [10]): > 4000 µg/mL and > 28 mM
- CC50 (in vitro [11]): > 4000 µg/mL
- tolerance of dietary cyclocreatine [12]: without significant mortality
- EC50 (HSV-1 [13]; Human alphaherpesvirus 1, Vero, read-out: 50% effective dose (ED50)): 1270 µg/mL and ~9 mM
- IC20 (HSV-1 [13]; Human alphaherpesvirus 1, Vero, read-out: concentration required for ~20% inhibition): 35 mM
- EC65 (HSV-1 [13]; Human alphaherpesvirus 1, Vero, read-out: dose required to inhibit cytopathogenicity by 65%): 35 mM
- effect on percent monolayer cell death, second set of experiments (HSV-1 [13]; Vero cells, 0-200 PFU, series of concentrations): consistent dose-dependent inhibition
- dose response against cytopathogenicity (HSV-1 [13]; Vero cells, 0.31-5.0 mg/ml, FIG. 16): shows a dose response
- effect on cytopathic effect (HSV-1 [13]; contact-inhibited A459 cells, FIG. 7A): inhibited the cytopathic effect
- effect on cytopathic effect (HSV-1 [13]; contact-inhibited BalbC/3T3 cells, FIG. 3A): inhibited the cytopathic effect
- effect on cytopathic effect (HSV-1 [13]; serum-starved DU145 cells, FIG. 5A): inhibited the cytopathic effect
- therapeutic index (HSV-1 [13]; serum-starved Vero cells): > 7.6
- effect on cytopathic effect (HSV-1 [13]; serum-starved Vero cells, 0.71-4.0 mg/ml, FIG. 1A): inhibited the cytopathic effect
- cytotoxicity (DU 145 cells): some cytotoxicity
- tolerance of dietary cyclocreatine [14]: without gross adverse effects
